# Results reported in ChEMBL document CHEMBL1139741, “Synthesis of 1,2,4-trioxepanes via application of thiol-olefin co-oxygenation methodology” (Bioorg Med Chem Lett, 2006).
# Tested on: Plasmodium falciparum
# Test: Antimalarial activity against Plasmodium falciparum 3D7
# Format: functional, organism-based
row,Compound,IC50 [nM]
1,CC1(CS(=O)(=O)c2ccc(Cl)cc2)COC2(CCCC2)OO1 (stereo not drawn),99.8
2,CC1(CS(=O)(=O)c2ccc(Cl)cc2)COC2(CCCCC2)OO1 (stereo not drawn),137
3,CC1(CS(=O)(=O)c2ccc(Cl)cc2)CCOC(=C2C3CC4CC(C3)CC2C4)OO1 (stereo not drawn),> 1000
4,CC1(CS(=O)(=O)c2ccc(Cl)cc2)CCOC2(CCCCC2)OO1 (stereo not drawn),> 1000
5,CC1(CS(=O)(=O)c2ccc(Cl)cc2)COC(=C2C3CC4CC(C3)CC2C4)OO1 (stereo not drawn),189
6,CC1(CS(=O)(=O)c2ccc(Cl)cc2)CCOC2(CCCC2)OO1 (stereo not drawn),> 1000
7,CC1(CSc2ccc(Cl)cc2)COC2(CCCC2)OO1 (stereo not drawn),110
8,COC(=O)/C=C/C1(C)CCOC(=C2C3CC4CC(C3)CC2C4)OO1 (stereo not drawn),> 1000
